# Source: patent US6218393A, “Anthranilic acid derivatives as multi drug resistance modulators” (priority 1997, dated 2001)
# Assays:
# AR 1.0 cells [1] = test: Drug accumulation assay: daunorubicin accumulation in AR 1.0 cells; assay type: cell-based; conditions: Mus musculus, 100% = accumulation with verapamil 100 μM, 1 hr, 37° C.
# How it was run: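 AR 1.0 is the MDR-resistant subline of EMT6 mouse mammary carcinoma, grown in RPMI 1640 with 10% foetal calf serum and 2 mM glutamine at 37 °C, 5% CO2. Cells were seeded 48 h before the daunorubicin accumulation assay.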
# AR 1.0 cells [2] = test: Potentiation of doxorubicin toxicity: proliferation assay (sulphorhodamine B); assay type: cell-based, mouse; conditions: Mus musculus, 96 h; compound alone; four day proliferation; read-out: Compound Toxicity (IC50)
# Excerpt: (a) Selected compounds of formula (I) were examined for their ability to potentiate the toxicity of doxorubicin in AR 1.0 cells.
# AR 1.0 cells [3] = test: Potentiation index with doxorubicin titration; assay type: cell-based, mouse; conditions: for Potentiation Index at RMA concentration 50 nM: Table C1, RMA 50 nM; for Potentiation Index at RMA concentration 20 nM: Table C1, RMA 20 nM
# How it was run: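 MDR-resistant mouse EMT6 subline AR 1.0 grown four days with a doxorubicin titration (0.263 nM-17.24 μM) plus a fixed compound concentration; proliferation by sulphorhodamine B. Potentiation index derived from doxorubicin IC50 alone versus with compound.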
# AR 1.0 cells [4] = test: Potentiation of toxicity of various cytotoxic agents, AR 1.0 cell line; assay type: cell-based, mouse; conditions: Etoposide
# Method: The EMT6 mouse mammary carcinoma cell line and the MDR resistant subline AR 1.0 were cultured in RPMI 1640 medium containing 10% foetal calf serum and 2 mM glutamine at 37° C. in 5% CO2. Cells were passaged between 1 in 200 and 1 in 2000 in the case of the parental cell line and between 1 in 20 and 1 in 200 in the case of the MDR resistant subline, after trypsinisation (0.25% trypsin, 0.2 gl^-1, EDTA).
# (§1) (b) Cells were cultured for four days with a titration of doxorubicin (0.263 nM-17.24 μM) in the presence of a fixed concentration of each compound. Proliferation was quantified as described by Skehen et al, loc cit. The IC50 (concentration required to reduce proliferation to 50% of the untreated controls) for doxorubicin alone and with each compound were derived and used to calculate the potentiation index (PI): [formula]
# (§2) The potentiation indices of a selection of compounds using a variety of cell lines and a variety of cytotoxics other than doxorubicin were measured following the protocol described above for doxorubicin, and the results are shown in Table D.
# 2780AD cells = test: Potentiation of toxicity of various cytotoxic agents, 2780AD cell line; assay type: cell-based; conditions: Taxol; for Potentiation Index at RMA concentration 10 nM: RMA 10 nM; for Potentiation Index at RMA concentration 30 nM: RMA 30 nM; for Potentiation Index at RMA concentration 50 nM: RMA 50 nM
# Method: as §1, §2
# H69/LX4 cells = test: Potentiation of toxicity of various cytotoxic agents, H69/LX4 cell line; assay type: cell-based; conditions: for Potentiation Index at RMA concentration 10 nM: RMA 10 nM; for Potentiation Index at RMA concentration 30 nM: RMA 30 nM; for Potentiation Index at RMA concentration 50 nM: RMA 50 nM
# Method: as §1, §2
SMILES,IC50 (AR 1.0 cells [1]),IC50 (AR 1.0 cells [2]),"Potentiation Index at RMA concentration 10 nM (AR 1.0 cells [3]; Table C2, RMA 10 nM)","Potentiation Index at RMA concentration 30 nM (AR 1.0 cells [3]; Table C2, RMA 30 nM)","Potentiation Index at RMA concentration 10 nM (AR 1.0 cells [3]; Table C1, RMA 10 nM)","Potentiation Index at RMA concentration 30 nM (AR 1.0 cells [3]; Table C1, RMA 30 nM)",Potentiation Index at RMA concentration 50 nM (AR 1.0 cells [3]),"Potentiation Index at RMA concentration 100 nM (AR 1.0 cells [3]; Table C1, RMA 100 nM)",Potentiation Index at RMA concentration 10 nM (H69/LX4 cells; Taxol),Potentiation Index at RMA concentration 30 nM (H69/LX4 cells; Taxol),Potentiation Index at RMA concentration 50 nM (H69/LX4 cells; Taxol),also measured
"COc1cc2c(cc1OC)CN(CCc1ccc(NC(=O)c3cc(OC)c(OC)cc3NC(=O)c3cnc4ccccc4c3)cc1)CC2 [compound 9576, Quinoline-3-carboxylic acid (2-{4-[2-(6,7-dimethoxy-3,4-dihydro-1H-isoquinolin-2-yl)-ethyl]-phenylcarbamoyl}-4,5-dimethoxy-phenyl)-amide]",64 nM,0.93 µM,78,225,–,–,–,–,–,–,–,"Potentiation Index at RMA concentration 100 nM (AR 1.0 cells [3]; Table C2, RMA 100 nM): 280; Potentiation Index at RMA concentration 10 nM (AR 1.0 cells [4]; RMA 10 nM): 26; Potentiation Index at RMA concentration 30 nM (AR 1.0 cells [4]; RMA 30 nM): 45; Potentiation Index at RMA concentration 50 nM (AR 1.0 cells [4]; RMA 50 nM): 51"
"COc1cc2c(cc1OC)CN(CCc1ccc(NC(=O)c3ccc(Cl)cc3NC(=O)c3cnc4ccccc4c3)cc1)CC2 [compound 9586, Quinoline-3-carboxylic acid (2-{4-[2-(6,7-dimethoxy-3,4-dihydro-1H-isoquinolin-2-yl)-ethyl]-phenylcarbamoyl}-5-chloro-phenyl)-amide]",180 nM,7.4 µM,5,6,–,–,–,–,–,–,–,–
"COc1cc2c(cc1OC)CN(CCc1ccc(NC(=O)c3ccc(C)cc3NC(=O)c3cnc4ccccc4c3)cc1)CC2 [compound 9588, Quinoline-3-carboxylic acid (2-{4-[2-(6,7-dimethoxy-3,4-dihydro-1H-isoquinolin-2-yl)-ethyl]-phenylcarbamoyl}-5-methyl-phenyl)-amide]",94 nM,6.7 µM,6,68,–,–,–,–,–,–,–,–
"COc1cc2c(cc1OC)CN(CCc1ccc(NC(=O)c3ccc(N)cc3NC(=O)c3cnc4ccccc4c3)cc1)CC2 [compound 9589, Quinoline-3-carboxylic acid (2-{4-[2-(6,7-dimethoxy-3,4-dihydro-1H-isoquinolin-2-yl)-ethyl]-phenylcarbamoyl}-5-amino-phenyl)-amide]",1000 nM,36.8 µM,1,1,–,–,–,–,–,–,–,–
"COc1cc2c(cc1OC)CN(CCc1ccc(NC(=O)c3ccccc3NC(=O)c3cnc4c(c3)CCCC4)cc1)CC2 [compound 9590, 5,6,7,8-Tetrahydroquinoline-3-carboxylic acid (2-{4-[2-(6,7-dimethoxy-3,4-dihydro-1H-isoquinolin-2-yl)-ethyl]-phenylcarbamoyl}-phenyl)-amide]",97 nM,9.5 µM,2,14,–,–,–,–,–,–,–,–
"COc1cc2c(cc1OC)CN(CCc1ccc(NC(=O)c3cc(Cl)ccc3NC(=O)c3cnc4ccccc4c3)cc1)CC2 [compound 9593, Quinoline-3-carboxylic acid (2-{4-[2-(6,7-dimethoxy-3,4-dihydro-1H-isoquinolin-2-yl)-ethyl]-phenylcarbamoyl}-4-chloro-phenyl)-amide]",14 nM,7 µM,6,57,–,–,–,–,–,–,–,–
"COc1cc2c(cc1OC)CN(CCc1ccc(NC(=O)c3c(C)csc3NC(=O)c3cnc4ccccc4c3)cc1)CC2 [compound 9609, Quinoline-3-carboxylic acid (3-{4-[2-(6,7-dimethoxy-3,4-dihydro-1H-isoquinolin-2-yl)-ethyl]-phenylcarbamoyl}-4-methyl-thiophen-2-yl)-amide]",431 nM,–,–,–,1.4,7.4,19,68,1,3,9,Potentiation Index at RMA concentration 20 nM (AR 1.0 cells [3]): 3.4

# Second part, led by results:
IC50 (AR 1.0 cells [1]),SMILES,IC50 (AR 1.0 cells [2]),"Potentiation Index at RMA concentration 10 nM (AR 1.0 cells [3]; Table C2, RMA 10 nM)","Potentiation Index at RMA concentration 30 nM (AR 1.0 cells [3]; Table C2, RMA 30 nM)","Potentiation Index at RMA concentration 10 nM (AR 1.0 cells [3]; Table C1, RMA 10 nM)","Potentiation Index at RMA concentration 30 nM (AR 1.0 cells [3]; Table C1, RMA 30 nM)",Potentiation Index at RMA concentration 50 nM (AR 1.0 cells [3]),"Potentiation Index at RMA concentration 100 nM (AR 1.0 cells [3]; Table C1, RMA 100 nM)",Potentiation Index at RMA concentration 10 nM (H69/LX4 cells; Taxol),Potentiation Index at RMA concentration 30 nM (H69/LX4 cells; Taxol),Potentiation Index at RMA concentration 50 nM (H69/LX4 cells; Taxol),also measured
132 nM,"COc1cc2c(cc1OC)CN(CCc1ccc(NC(=O)c3cc(N(C)C)ccc3NC(=O)c3cnc4ccccc4n3)cc1)CC2 [compound 9596, Quinoxaline-2-carboxylic acid (2-{4-[2-(6,7-dimethoxy-3,4-dihydro-1H-isoquinolin-2-yl)-ethyl]-phenylcarbamoyl}-4-dimethylamino-phenyl)-amide]",–,–,–,2.68,44,131,354,–,–,–,Potentiation Index at RMA concentration 10 nM (2780AD cells): 3.5; Potentiation Index at RMA concentration 30 nM (2780AD cells): 160; Potentiation Index at RMA concentration 50 nM (2780AD cells): 743; Potentiation Index at RMA concentration 10 nM (H69/LX4 cells; Vincristine): 1; Potentiation Index at RMA concentration 30 nM (H69/LX4 cells; Vincristine): 2; Potentiation Index at RMA concentration 50 nM (H69/LX4 cells; Vincristine): 158
87 nM,"COc1cc2c(cc1OC)CN(CCc1ccc(NC(=O)c3sccc3NC(=O)c3cnc4ccccc4n3)cc1)CC2 [compound 9597, Quinoxaline-2-carboxylic acid (2-{4-[2-(6,7-dimethoxy-3,4-dihydro-1H-isoquinolin-2-yl)-ethyl]-phenylcarbamoyl}-thiophen-3-yl)-amide]",–,–,–,80,382,551,878,–,–,–,Potentiation Index at RMA concentration 10 nM (2780AD cells): 110; Potentiation Index at RMA concentration 30 nM (2780AD cells): 1427; Potentiation Index at RMA concentration 50 nM (2780AD cells): 2070; Potentiation Index at RMA concentration 10 nM (H69/LX4 cells; Vincristine): 1; Potentiation Index at RMA concentration 30 nM (H69/LX4 cells; Vincristine): 41; Potentiation Index at RMA concentration 50 nM (H69/LX4 cells; Vincristine): 44
224 nM,"COc1cc2c(cc1OC)CN(CCc1ccc(NC(=O)c3c(C)csc3NC(=O)c3cnc4ccccc4n3)cc1)CC2 [compound 9608, Quinoxaline-2-carboxylic acid (3-{4-[2-(6,7-dimethoxy-3,4-dihydro-1H-isoquinolin-2-yl)-ethyl]-phenylcarbamoyl}-4-methyl-thiophen-2-yl)-amide]",–,–,–,6.7,60,118,178,1.6,17,130,Potentiation Index at RMA concentration 20 nM (AR 1.0 cells [3]): 31
87 nM,"COc1ccc(CN(C)CCc2ccc(NC(=O)c3ccccc3NC(=O)c3cnc4ccccc4n3)cc2)cc1OC [compound 9612, Quinoxaline-2-carboxylic acid [2-(4-{2-[(3,4-dimethoxy-benzyl)-methyl-amino]-ethyl}-phenylcarbamoyl)-phenyl]-amide]",–,–,–,11,95,149,171,51,894,1329,–
98 nM,"COc1ccc(CN(C)CCc2ccc(NC(=O)c3ccccc3NC(=O)c3cnc4ccccc4c3)cc2)cc1OC [compound 9613, Quinoline-3-carboxylic acid [2-(4-{2-[(3,4-dimethoxy-benzyl)-methyl-amino]-ethyl}-phenylcarbamoyl)-phenyl]-amide]",–,–,–,3,35,97,168,2.2,236,877,–
278 nM,"COc1ccc(CN2CCc3ccc(NC(=O)c4ccccc4NC(=O)c4cnc5ccccc5n4)cc3C2)cc1OC [compound 9614, Quinoxaline-2-carboxylic acid {2-[2-(3,4-dimethoxy-benzyl)-1,2,3,4-tetrahydro-isoquinolin-7-ylcarbamoyl]-phenyl}-amide]",–,–,–,2,9,32,52,–,1.1,11,–
